The values below come from patent publication US20260053782A1, “TREATMENT REGIMENS FOR PARKINSON'S DISEASE” (BIAL - PORTELA & CA, S.A., priority 2022, published 2026).

For data set [1], the system named is patients suffering from early idiopathic Parkinson's disease. Particulars: addition of entacapone vs levodopa-only therapy; levodopa-naïve patients; cited from earlier work.
The conditions of data set [2]: cited from earlier work.
The test system of data set [3] is Parkinson's disease patients with end-of-dose motor fluctuations. The data set can be described thus: 12-hour patient ON/OFF monitoring registered by investigators on pharmacokinetics days. In kind it is in vivo, human. Particulars: addition of opicapone; overall summary. An excerpt: Subjects were aged ≥30 years with a clinical diagnosis of idiopathic Parkinson's disease according to the United Kingdom Parkinson's Disease Society Brain Bank Clinical Diagnostic Criteria with disease severity stage 1-3 (according to modified Hoehn & Yahr staging) at ON and with end-of-dose motor fluctuations and signs of “wearing off”. Subjects were receiving treatment with levodopa/DDCI for at least 1 year with clear clinical improvement.
Clinical and safety/tolerability outcomes were also assessed as exploratory secondary outcomes. Clinical outcomes included ON and OFF-time assessed using patient-rated tools. The timing of ON and OFF state was registered (in real time) by the investigators during the matching 12-hour pharmacokinetic evaluation, as such applied on the pharmacokinetics days only), and patients also completed 24-hour Hauser ON/OFF diary charts (in 30 minute blocks) during the three days before each pharmacokinetic visit. […] In addition, the patient global impression of change (PGI-C) of opicapone 50 mg was evaluated at the end of the LD/CD 400/100 mg plus opicapone treatment, compared to before the start of the opicapone treatment. […]
All study assessments were evaluated for each LD/CD 400/100 mg plus 50 mg opicapone treatment regimen, compared to the LD/CD 500/125 mg without opicapone regimen.

Data set [4] is described as follows: Levodopa pharmacokinetics over 12 hours after 2 weeks of each LD/CD regimen with or without opicapone 50 mg (Phase II open-label trial). Particulars: human, in vivo. As to the method:
The invention was discovered through a Phase IL, randomized, open-label trial evaluating the effect of opicapone (50 mg once-daily) on L-DOPA pharmacokinetics in Parkinson's disease patients with end-of-dose motor fluctuations taking different levodopa/carbidopa (LD/CD) sparing regimens (EudraCT number: 2020-003139-12).
Following screening, all subjects received an LD/CD dose and regimen of 100/25 mg QD5 (giving a total daily dose of 500/125 mg) fixed every 3 hours (from 8:00 to 20:00) for 14±2 days. This is the reference regimen. […]
The pharmacokinetic parameters assessed for each of the regimens included maximum observed plasma concentration (Cmax), time to achieve peak plasma levels (tmax), minimum observed plasma concentration (Cmin), plasma elimination half-life (t1/2), area under the curve (AUC) and fluctuation index (FI, as an expression of peak-to-trough fluctuation, Cmax and Cmin relative to average concentration Cavg).

For the compound `CCN(CC)C(=O)/C(C#N)=C/c1cc(O)c(O)c([N+](=O)[O-])c1` [entacapone], the frequency of dyskinesia entry in data set [1] was “increased frequency of dyskinesia”.

Consider `N[C@@H](Cc1ccc(O)c(O)c1)C(=O)O` [levodopa, L-3,4-dihydroxyphenylalanine], for which, in data set [2], the “half-life of oral levodopa” value was 1 to 1.5 h.

As for `Cc1c(Cl)c(C)[n+]([O-])c(Cl)c1-c1noc(-c2cc(O)c(O)c([N+](=O)[O-])c2)n1` [opicapone], in data set [3], the OFF time entry is “reduced OFF time” and the ON time result was “increased ON time”. Moreover, in data set [4], the “difference in levodopa tmax” value is listed as “no impact” and the “increase in levodopa t1/2” value is “at least doubled”.
